Results: patent US20250381155A1, “USE OF 2-HYDROXYBENZYLAMINE IN THE TREATMENT AND PREVENTION OF PULMONARY HYPERTENSION” (Vanderbilt University, priority 2016, published 2025)
Entries after “also recorded” stand apart in the source; their conditions may differ.

Experiments:
WT mice = assay: Glutamine synthetase in liver mitochondria of treated WT mice; type: in vivo; conditions: 2HOBA treatment
Protocol: (§1) To assess mitochondrial respiration in cultured PMVECs, cells were seeded in growth media in a 96-well plate from Seahorse Biosciences (Bilerica, MA) at a seeding density of 50,000 live cells per well. The following day, cells were washed and placed in Seahorse Assay Media supplemented with specific substrates (1 gm/L glucose, 2 mM L-glutamine). After equilibration, oxygen consumption rates were measured on a Seahorse XFe96 analyzer using the Mito Stress Test protocol. For mitochondrial protein measurements, mitochondria were isolated from fresh murine liver tissue as previously described.^24
(§2) All animal studies were approved by the Vanderbilt IACUC. Male and female FVB/N mice were 10-16 weeks of age. BMPR2^R899X mice were generated and maintained as previously described.^24,25 For 2HOBA studies, 1 gm/L was administered in the drinking water, with water bottles protected from light and water changes every 2-3 days.
(§3) Having shown that impaired BMPR2 function is associated with loss of SIRT3 function, and that this can be prevented with 2HOBA treatment to scavenge damaging lipid peroxidation products, the present inventors next wished to assess the in vivo metabolic dysfunction downstream from BMPR2 mutation, the relationship to PAH, and the effect of 2HOBA treatment. […]

[1] = pre-clinical animal studies; cited from earlier work
[2] = Long-term safety, continuous dosing in mice; type: in vivo; conditions: over 12 months of continuous dosing in mice
SIRT3 = assay: Lysine acetylation and SIRT3 content of the mitochondrial proteome from treated BMPR2^R899X mice (Western blot); type: in vivo; conditions: 1 g/L 2HOBA in drinking water
Protocol: as §1, §2
Because sirtuin expression and activity is tightly regulated by substrate availability, nutrient intake, physical activity, and interacting signaling pathways operating between organ systems, the role of SIRT3 in BMPR2-mediated PAH is best studied in a murine model system. […] The mitochondrial proteome was assessed for acetylation of lysine residues, with SIRT3 inactivation leading to lysine hyperacetylation. […]

BMPR2^R899X mice [3] = assay: Development of PAH in BMPR2^R899X mice (total pulmonary resistance, cardiac output by echocardiography, invasive RVSP); type: in vivo
Protocol: as §2
Echocardiography was performed on anesthetized mice (isoflurane anesthesia) to determine cardiac output. Right ventricular systolic pressure (RVSP) was invasively measured as described, using bromoethanol as the anesthetic.^24,25
All statistics were performed using GraphPad Prism 6.0 or Microsoft Excel unless otherwise specified. For animal experiments, sample sizes were chosen based upon previous experiments with approximately 80% of transgenic animals showing RVSP>30 mm Hg. Animals were randomly assigned to treatment groups by cage. For all measurements, investigators were blind to treatments and genotype until data analysis. Data were analyzed using two-tailed t-test, or two-way ANOVA with Tukey's post-test, as indicated. Significance was set at α<0.05 after correction for multiple comparisons.
Having shown that impaired BMPR2 function is associated with loss of SIRT3 function, and that this can be prevented with 2HOBA treatment to scavenge damaging lipid peroxidation products, the present inventors next wished to assess the in vivo metabolic dysfunction downstream from BMPR2 mutation, the relationship to PAH, and the effect of 2HOBA treatment. The present inventors hypothesized that 2HOBA would prevent the development of PAH in BMPR2^R899X mice and would have a beneficial modulatory effect on glutamine metabolism in vivo. Expression of the BMPR2^R899X allele was sufficient to drive upregulation of glutamine synthetase in skeletal muscle (FIG. 10) and in liver mitochondria (FIG. 7A) compared to WT.

BMPR2^R899X mice [4] = assay: Glutamine synthetase in liver mitochondria and circulating glutamine in treated BMPR2^R899X mice; type: in vivo
Protocol: as §1, §2, §3

WT PMVEC = assay: Extracellular glutamine to glucose flux ratio in WT PMVEC; type: cell-based; conditions: low-dose chetomin
Protocol: (§4) The present inventors used previously characterized WT and BMPR2 mutant (BMPR2^R899X) pulmonary microvascular endothelial cells isolated from conditionally immortalized murine lines generated on the ImmortoMouse background,^20 and WT and BMPR2 mutant PMVECs from a parent immortalized human line stably expressing either a WT or BMPR2 mutant construct transfected into the parent line and maintained under selection with G418S. […]
(§5) Glucose and lactate levels were measured using the YSI 2300 Stat Glucose and Lactate Analyzer (Yellow Springs, OH). High performance liquid chromatography (HPLC) was used to quantify amino acid concentrations, with norvaline as an internal standard. […] Flux rates were calculated using the ETA software package.^22
(§6) The present inventors next wished to determine the molecular events downstream from BMPR2 mutation that contribute to glutamine reliance. […] Then WT and BMPR2 mutant PMVEC was treated with chetomin, a pharmacologic inhibitor of HIF, and assessed glucose and glutamine uptake by quantifying the extracellular flux ratio of glutamine to glucose. […]

BMPR2 mutant PMVEC = assay: Extracellular glutamine to glucose flux ratio in BMPR2 mutant PMVEC; type: cell-based; conditions: low-dose chetomin
Protocol: as §4, §5, §6

[5] = 2HOBA vs vehicle-treated mutants

| Structure (SMILES) | glutamine synthetase in liver mitochondrial fraction (WT mice) | safety profile [1] | toxicity [2] | total SIRT3 content in the mitochondria (SIRT3) | lysine acetylation in the mitochondrial proteome (SIRT3; Western diet, isolated mitochondria) | development of pulmonary hypertension as measured by total pulmonary resistance (BMPR2^R899X mice [3]; 2HOBA compared to vehicle-treated mice) | cardiac output (BMPR2^R899X mice [3]; [5]) | right ventricular systolic pressure (RVSP) (BMPR2^R899X mice [3]; [5]) | circulating (plasma) glutamine (BMPR2^R899X mice [4]; 2HOBA-treated BMPR2^R899X mice compared to 2HOBA-treated WT mice) | glutamine synthetase in liver mitochondria (BMPR2^R899X mice [4]; BMPR2^R899X mice, 2HOBA treatment) | glutamine to glucose flux ratio (WT PMVEC) | glutamine to glucose flux ratio (BMPR2 mutant PMVEC) |
| --- | --- | --- | --- | --- | --- | --- | --- | --- | --- | --- | --- | --- |
| NCc1ccccc1O [2HOBA, 2-hydroxybenzylamine] | not substantially | excellent safety profile | no significant toxicity | without affecting | significantly reduced; also recorded: normalized | prevented the development of pulmonary hypertension; also recorded: to a level statistically indistinguishable from WT | modestly increased; also recorded: trends toward improved | decreased; also recorded: trends toward a decrease | significantly lower; also recorded: significantly reduces | reduced |  |  |
| CN1C(=O)[C@]2(Cc3cn([C@]45C[C@@]67SS[C@@](CO)(C(=O)N6[C@H]4Nc4ccccc45)N(C)C7=O)c4ccccc34)SS[C@@]1(CO)C(=O)N2C [chetomin] |  |  |  |  |  |  |  |  |  |  | no effect; also recorded: essentially unaffected | significantly reduced |
